Reference: patent US10435399B2, “HDAC6 inhibitory heterocyclic compound” (TAKEDA PHARMACEUTICAL COMPANY LIMITED, priority 2017, dated 2019)

Target: T1, HDAC6 enzyme (Homo sapiens, UniProt Q9UBN7)
T1 construct: transducing full length HDAC6 gene into Sf-9 insect cells; GST; purchased SignalChem; host or cells: Sf-9 insect cells
T1 sequence (Q9UBN7 1-1215): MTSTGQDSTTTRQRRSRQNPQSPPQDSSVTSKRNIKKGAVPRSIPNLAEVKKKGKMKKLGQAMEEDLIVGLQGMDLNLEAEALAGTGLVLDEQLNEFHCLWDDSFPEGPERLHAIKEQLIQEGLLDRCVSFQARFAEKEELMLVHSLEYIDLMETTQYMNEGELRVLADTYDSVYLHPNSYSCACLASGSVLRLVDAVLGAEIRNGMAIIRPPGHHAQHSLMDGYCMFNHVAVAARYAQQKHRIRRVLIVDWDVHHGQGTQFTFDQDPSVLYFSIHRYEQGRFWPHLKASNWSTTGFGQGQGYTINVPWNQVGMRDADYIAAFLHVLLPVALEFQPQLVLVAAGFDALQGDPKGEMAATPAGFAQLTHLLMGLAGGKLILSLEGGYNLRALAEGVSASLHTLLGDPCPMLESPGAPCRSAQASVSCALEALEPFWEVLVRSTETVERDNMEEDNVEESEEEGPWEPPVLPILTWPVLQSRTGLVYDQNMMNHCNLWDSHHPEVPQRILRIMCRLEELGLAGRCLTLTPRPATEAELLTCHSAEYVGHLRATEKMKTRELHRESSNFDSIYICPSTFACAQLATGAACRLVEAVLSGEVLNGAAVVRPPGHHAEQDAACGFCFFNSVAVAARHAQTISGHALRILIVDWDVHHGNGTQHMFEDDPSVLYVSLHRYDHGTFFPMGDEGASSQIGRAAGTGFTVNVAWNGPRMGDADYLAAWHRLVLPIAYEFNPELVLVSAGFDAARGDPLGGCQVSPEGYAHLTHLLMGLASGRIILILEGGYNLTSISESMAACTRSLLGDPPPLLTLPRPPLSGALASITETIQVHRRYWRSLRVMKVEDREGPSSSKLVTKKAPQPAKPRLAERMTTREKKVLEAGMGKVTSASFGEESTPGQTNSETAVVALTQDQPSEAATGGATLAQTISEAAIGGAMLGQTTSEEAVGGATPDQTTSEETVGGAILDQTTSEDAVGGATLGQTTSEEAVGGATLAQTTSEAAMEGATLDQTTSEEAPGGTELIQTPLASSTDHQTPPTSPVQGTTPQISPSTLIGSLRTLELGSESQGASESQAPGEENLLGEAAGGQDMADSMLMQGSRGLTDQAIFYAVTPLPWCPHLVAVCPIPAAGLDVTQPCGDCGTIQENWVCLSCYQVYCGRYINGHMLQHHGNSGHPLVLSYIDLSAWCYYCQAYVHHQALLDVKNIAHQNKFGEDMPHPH
Assay: HDAC6 enzyme inhibitory activity (HDAC-Glo I/II Assay kit)
Assay type: biochemical
Conditions: 10 μM; wells without enzyme = 100% inhibition; read-out: HDAC6 inhibitory rate (%) (10 μM)
In short: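 Inhibition is calculated as relative activity, taking luminescence in enzyme-free wells as complete inhibition. The enzyme, full-length and GST-purified after Sf-9 expression, was exposed to compound for 60 min at room temperature before a 20 min HDAC-Glo reaction.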

In order of falling inhibition at 10 µM:
1. O=C(N[C@@H]1CCCC[C@H]1N1Cc2ccc(-c3nnc(C(F)F)o3)cc2C1=O)C1CC1(F)F (stereo partly drawn) [Example 74, N-((1R,2R)-2-(6-(5-(difluoromethyl)-1,3,4-oxadiazol-2-yl)-1-oxo-1,3-dihydro-2H-isoindol-2-yl)cyclohexyl)-2,2-difluorocyclopropanecarboxamide (optical isomer)]  102%
2. CC(C)(O)CC(=O)N[C@@H]1CCCC[C@H]1N1Cc2ccc(-c3nnc(C(F)F)o3)cc2C1=O [Example 83, N-((1R,2R)-2-(6-(5-(difluoromethyl)-1,3,4-oxadiazol-2-yl)-1-oxo-1,3-dihydro-2H-isoindol-2-yl)cyclohexyl)-3-hydroxy-3-methylbutanamide]  102%
3. CC1(C)CC1C(=O)N[C@@H]1CCCC[C@H]1N1Cc2ccc(-c3nnc(C(F)F)o3)cc2C1=O (stereo partly drawn) [Example 75, N-((1R,2R)-2-(6-(5-(difluoromethyl)-1,3,4-oxadiazol-2-yl)-1-oxo-1,3-dihydro-2H-isoindol-2-yl)cyclohexyl)-2,2-dimethylcyclopropanecarboxamide]  101%
4. O=C1c2cc(-c3nnc(C(F)F)o3)ccc2CN1[C@@H]1CCCC[C@H]1NC(=O)C1(O)CCC1 [Example 76, N-((1R,2R)-2-(6-(5-(difluoromethyl)-1,3,4-oxadiazol-2-yl)-1-oxo-1,3-dihydro-2H-isoindol-2-yl)cyclohexyl)-1-hydroxycyclobutanecarboxamide]  101%
5. O=C1c2cc(-c3nnc(C(F)F)o3)ccc2CN1[C@@H]1CCCC[C@H]1NC(=O)C12CC(C(F)(F)F)(C1)C2 [Example 80, N-((1R,2R)-2-(6-(5-(difluoromethyl)-1,3,4-oxadiazol-2-yl)-1-oxo-1,3-dihydro-2H-isoindol-2-yl)cyclohexyl)-3-(trifluoromethyl)bicyclo[1.1.1]pentane-1-carboxamide]  101%
6. CC(C)(O)C(=O)N[C@@H]1CCCC[C@H]1N1Cc2ccc(-c3nnc(C(F)F)o3)cc2C1=O [Example 81, N-((1R,2R)-2-(6-(5-(difluoromethyl)-1,3,4-oxadiazol-2-yl)-1-oxo-1,3-dihydro-2H-isoindol-2-yl)cyclohexyl)-2-hydroxy-2-methylpropanamide]  101%
7. COC(C)(C)C(=O)N[C@@H]1CCCC[C@H]1N1Cc2ccc(-c3nnc(C(F)F)o3)cc2C1=O [Example 85, N-((1R,2R)-2-(6-(5-(difluoromethyl)-1,3,4-oxadiazol-2-yl)-1-oxo-1,3-dihydro-2H-isoindol-2-yl)cyclohexyl)-2-methoxy-2-methylpropanamide]  101%
8. CC1CC1C(=O)N[C@@H]1CCCC[C@H]1N1Cc2ccc(-c3nnc(C(F)F)o3)cc2C1=O (stereo partly drawn) [Example 73, N-((1R,2R)-2-(6-(5-(difluoromethyl)-1,3,4-oxadiazol-2-yl)-1-oxo-1,3-dihydro-2H-isoindol-2-yl)cyclohexyl)-2-methylcyclopropanecarboxamide]  100%
9. O=C1c2cc(-c3nnc(C(F)F)o3)ccc2CN1[C@@H]1CCCC[C@H]1NC(=O)C1(F)CCC1 [Example 77, N-((1R,2R)-2-(6-(5-(difluoromethyl)-1,3,4-oxadiazol-2-yl)-1-oxo-1,3-dihydro-2H-isoindol-2-yl)cyclohexyl)-1-fluorocyclobutanecarboxamide]  100%
10. N#CC1(C(=O)N[C@@H]2CCCC[C@H]2N2Cc3ccc(-c4nnc(C(F)F)o4)cc3C2=O)CCC1 [Example 78, 1-cyano-N-((1R,2R)-2-(6-(5-(difluoromethyl)-1,3,4-oxadiazol-2-yl)-1-oxo-1,3-dihydro-2H-isoindol-2-yl)cyclohexyl)cyclobutanecarboxamide]  100%
11. CC(C)(C#N)C(=O)N[C@@H]1CCCC[C@H]1N1Cc2ccc(-c3nnc(C(F)F)o3)cc2C1=O [Example 82, 2-cyano-N-((1R,2R)-2-(6-(5-(difluoromethyl)-1,3,4-oxadiazol-2-yl)-1-oxo-1,3-dihydro-2H-isoindol-2-yl)cyclohexyl)-2-methylpropanamide]  100%
12. CC(C)(C(=O)N[C@@H]1CCCC[C@H]1N1Cc2ccc(-c3nnc(C(F)F)o3)cc2C1=O)C(F)(F)F [Example 84, N-((1R,2R)-2-(6-(5-(difluoromethyl)-1,3,4-oxadiazol-2-yl)-1-oxo-1,3-dihydro-2H-isoindol-2-yl)cyclohexyl)-3,3,3-trifluoro-2,2-dimethylpropanamide]  100%
13. O=C1c2cc(-c3nnc(C(F)F)o3)ccc2CN1[C@@H]1CCCC[C@H]1NC(=O)C1(c2ccccc2)CCC1 [Example 89, N-((1R,2R)-2-(6-(5-(difluoromethyl)-1,3,4-oxadiazol-2-yl)-1-oxo-1,3-dihydro-2H-isoindol-2-yl)cyclohexyl)-1-phenylcyclobutanecarboxamide]  100%
14. O=C1c2cc(-c3nnc(C(F)F)o3)ccc2CN1[C@@H]1CCCC[C@H]1NC(=O)C1(c2ccccc2)COC1 [Example 90, N-((1R,2R)-2-(6-(5-(difluoromethyl)-1,3,4-oxadiazol-2-yl)-1-oxo-1,3-dihydro-2H-isoindol-2-yl)cyclohexyl)-3-phenyloxetane-3-carboxamide]  100%
15. O=C(N[C@@H]1CCCC[C@H]1N1Cc2ccc(-c3nnc(C(F)F)o3)cc2C1=O)C1COC1 [Example 91, N-((1R,2R)-2-(6-(5-(difluoromethyl)-1,3,4-oxadiazol-2-yl)-1-oxo-1,3-dihydro-2H-isoindol-2-yl)cyclohexyl)oxetane-3-carboxamide]  100%
16. O=C1c2cc(-c3nnc(C(F)F)o3)ccc2CN1[C@@H]1CCCC[C@H]1NC(=O)C1(c2ccccc2)CC1 [Example 87, N-((1R,2R)-2-(6-(5-(difluoromethyl)-1,3,4-oxadiazol-2-yl)-1-oxo-1,3-dihydro-2H-isoindol-2-yl)cyclohexyl)-1-phenylcyclopropanecarboxamide]  99%
17. CC(C)(C(=O)N[C@@H]1CCCC[C@H]1N1Cc2ccc(-c3nnc(C(F)F)o3)cc2C1=O)c1ccccc1 [Example 88, N-((1R,2R)-2-(6-(5-(difluoromethyl)-1,3,4-oxadiazol-2-yl)-1-oxo-1,3-dihydro-2H-isoindol-2-yl)cyclohexyl)-2-methyl-2-phenylpropanamide]  99%
18. O=C(N[C@@H]1CCCC[C@H]1N1Cc2ccc(-c3nnc(C(F)F)o3)cc2C1=O)C1CC12CCC2 (stereo partly drawn) [Example 72, N-((1R,2R)-2-(6-(5-(difluoromethyl)-1,3,4-oxadiazol-2-yl)-1-oxo-1,3-dihydro-2H-isoindol-2-yl)cyclohexyl)spiro[2.3]hexane-1-carboxamide (optical isomer)]  97%
19. O=C(N[C@@H]1CCCC[C@H]1N1Cc2ccc(-c3nnc(C(F)F)o3)cc2C1=O)C1CC2(CCC2)C1 [Example 79, N-((1R,2R)-2-(6-(5-(difluoromethyl)-1,3,4-oxadiazol-2-yl)-1-oxo-1,3-dihydro-2H-isoindol-2-yl)cyclohexyl)spiro[3.3]heptane-2-carboxamide]  97%
20. N#CC1(CC(=O)N[C@@H]2CCCC[C@H]2N2Cc3ccc(-c4nnc(C(F)F)o4)cc3C2=O)CC1 [Example 86, 2-(1-cyanocyclopropyl)-N-((1R,2R)-2-(6-(5-(difluoromethyl)-1,3,4-oxadiazol-2-yl)-1-oxo-1,3-dihydro-2H-isoindol-2-yl)cyclohexyl)acetamide]  96%
